Values after ≈ are worked out from the molar mass of the structure shown. Like-named read-outs stand apart in the source and are kept apart here.
What was measured:
E. coli ATCC 25922 = test: MIC, E. coli ATCC 25922; assay type: cell-based; conditions: for MIC: Escherichia coli, ATCC25922, E. coli
S. aureus ATCC 13709 = test: MIC, S. aureus ATCC 13709 (Alamar Blue broth microdilution); assay type: cell-based; conditions: for MIC: Staphylococcus aureus, ATCC13709, S. aureus
[1] = E. coli, Alamar Blue read after overnight incubation at 35° C.
[2] = S. aureus, Alamar Blue read after overnight incubation at 35° C.
[3] = Alamar Blue read after overnight incubation at 35° C.

Compound	MIC Ec (E. coli ATCC 25922; [1]) [µg/mL]	MIC Sa (S. aureus ATCC 13709; [2]) [µg/mL]	MIC (E. coli ATCC 25922; [3]) [µg/mL]	MIC (S. aureus ATCC 13709; [3]) [µg/mL]	further results
CNc1cc(F)cc2c1[nH]c1nc(Oc3cnc(C)nc3)nc(NCCCN)c12 [4.108]	>16	4 (≈ 10.1 µM)			
CNc1cc(F)cc2c1[nH]c1nc(Oc3cnc(SC)nc3)nc(N3CC4C(CN)C4C3)c12 (stereo not shown) [4.197]	≤0.5	≤0.5			
CNc1cc(F)cc2c1[nH]c1nc(Oc3cnc(C)nc3)nc(N3CC4C(N)CC(C)(C)C4C3)c12 (stereo not shown) [4.097]	2 (≈ 4.2 µM)	≤0.5			
CNc1cccc2c1[nH]c1nc(Sc3cncnc3)nc(N3CC(N)C4(CC4)C3)c12 (stereo not shown) [1.44]			2 (≈ 4.78 µM)	1 (≈ 2.39 µM)	
CNc1cccc2c1[nH]c1nc(Sc3cnc4cccnc4c3)nc(N3C[C@H](N)C[C@H]3C)c12 [1.61]			64 (≈ 140 µM)	8 (≈ 17.5 µM)	
CNc1cccc2c1[nH]c1nc(Sc3cnc4ccc[n+]([O-])c4c3)nc(N3CC(C4(N)CC4)C3)c12 [1.33]			4 (≈ 8.25 µM)	≤ 0.5	
CNc1cccc2c1[nH]c1nc(Oc3cncnc3)nc(N3C[C@H](N)C4(CC4)C3)c12 [3.47]			≤ 0.5	≤ 0.5	
CNc1cc(F)cc2c1[nH]c1nc(Oc3cnc(N4CCC4)nc3)nc(N3C[C@H](N)C4(CC4)C3)c12 [4.297]			≤ 0.5	≤ 0.5	
CNc1cccc2c1[nH]c1nc(Oc3cncnc3)nc(N3CC(N)C(O)C3)c12 (stereo not shown) [3.8]			> 64	16 (≈ 40.8 µM)	
CNc1cc(F)cc2c1[nH]c1nc(Oc3cncc(F)c3)nc(N3CC4CC(N)C3C4)c12 (stereo not shown) [4.063]	8 (≈ 18.3 µM)	1 (≈ 2.29 µM)			
CNc1cccc2c1[nH]c1nc(Oc3cncc(C#N)c3)nc(N3CCC4(CC4N)C3)c12 (stereo not shown) [3.40]			1 (≈ 2.34 µM)	≤ 0.5	
CCNc1cccc2c1[nH]c1nc(Sc3cnc4cccnc4c3)nc(N3CC4C(N)C4C3)c12 (stereo not shown) [1.11]			8 (≈ 17.1 µM)	≤ 0.5	
CNc1cc(F)cc2c1[nH]c1nc(Oc3cnc(C)nc3)nc(N3CC4NCCOC4C3)c12 (stereo not shown) [4.114]	2 (≈ 4.44 µM)	≤0.5			
CNc1cc(F)cc2c1[nH]c1nc(Oc3cnc(C)nc3)nc(N3CC(CN)C3)c12 [4.143]	2 (≈ 4.9 µM)	≤0.5			
CNc1cc(F)cc2c1[nH]c1nc(Oc3cnc(C)nc3)nc(N3CC(NCCO)C4(CC4)C3)c12 (stereo not shown) [4.089]	≤0.5	≤0.5			
CNc1cccc2c1[nH]c1nc(Oc3cncc(F)c3)nc(N3CC4CNC4C3)c12 (stereo not shown) [3.7]			4 (≈ 9.87 µM)	1 (≈ 2.47 µM)	

Compound	MIC Ec (E. coli ATCC 25922; [1]) [µg/mL]	MIC Sa (S. aureus ATCC 13709; [2]) [µg/mL]	MIC (E. coli ATCC 25922; [3]) [µg/mL]	MIC (S. aureus ATCC 13709; [3]) [µg/mL]	further results
CNc1cc(F)cc2c1[nH]c1nc(Oc3cnc(C)nc3)nc(N3CC4(CCN4)C3)c12 [4.120]	1 (≈ 2.38 µM)	≤0.5			
CNc1cc(F)cc2c1[nH]c1nc(Oc3cnc(C)nc3)nc(N3CC4CNC(C4)C3)c12 (stereo not shown) [4.072]			1 (≈ 2.3 µM)	≤ 0.5	
CNc1c(F)ccc2c1[nH]c1nc(Oc3cncnc3)nc(N3CC4C(N)C4C3)c12 (stereo not shown) [6.02]					MIC Ec (E. coli ATCC 25922): ≤0.5 µg/mL; MIC Sa (S. aureus ATCC 13709): ≤0.5 µg/mL
CCc1cc(F)cc2c1[nH]c1nc(Oc3cncnc3)nc(N3CC4CC(N)C4C3)c12 (stereo not shown) [2.5]	2 (≈ 4.77 µM)	≤0.5			
CNc1cc(F)cc2c1[nH]c1nc(Oc3cnc(C)nc3)nc(N3CC4CNC4C3)c12 (stereo not shown) [4.067]			≤ 0.5	≤ 0.5	
CNc1cccc2c1[nH]c1nc(Oc3cnc(N)nc3)nc(Oc3cnc(N)nc3)c12 [3.53]			> 64	8 (≈ 19.2 µM)	
CNc1cccc2c1[nH]c1nc(Oc3cncc(F)c3)nc(N3CC(N)C4(CC4)C3)c12 (stereo not shown) [3.50]			2 (≈ 4.77 µM)	≤ 0.5	
CNc1cc(F)cc2c1[nH]c1nc(Oc3cncc(Br)c3)nc(N3CC4CC3CC4N)c12 (stereo not shown) [4.284]	≤0.5	≤0.5			
CNc1cc(F)c(F)c2c1[nH]c1nc(Oc3cncnc3)nc(N3CC(N)C4(CC4)C3)c12 (stereo not shown) [5.09]	≤0.5	≤0.5			
CNc1cc(F)cc2c1[nH]c1nc(Oc3cncnc3)nc(N3CC4C[C@@H]3CN4)c12 [4.022]			16 (≈ 39.4 µM)	8 (≈ 19.7 µM)	
CNc1cccc2c1[nH]c1nc(Sc3cnc4cccnc4c3)nc(N3CC4CNCC4C3)c12 (stereo not shown) [1.55]			8 (≈ 17.1 µM)	1 (≈ 2.13 µM)	
CNc1cc(F)cc2c1[nH]c1nc(Oc3cnc(C)nc3)nc(-c3cncc(F)c3)c12 [4.417]			1 (≈ 2.38 µM)	≤ 0.5	
CNc1cc(F)cc2c1[nH]c1nc(Oc3cnc(C)nc3)nc(N3CC4C(C3)C4NC(=O)CN)c12 (stereo not shown) [4.078]	8 (≈ 16.8 µM)	≤0.5			
CNc1cc(F)cc2c1[nH]c1nc(Oc3cnc(C)nc3)nc(-c3cn[nH]c3)c12 [4.418]			1 (≈ 2.56 µM)	≤ 0.5	
CNc1cc(F)cc2c1[nH]c1nc(Oc3cnc(C(C)C)nc3)nc(N3CCC4(CC4N)C3)c12 (stereo not shown) [4.235]			≤ 0.5	≤ 0.5	
CNc1cc(F)cc2c1[nH]c1nc(Oc3cnc(C)nc3)nc(N3C[C@H]4CCC(N)[C@@]4(C)C3)c12 (stereo partly shown) [4.099]	4 (≈ 8.65 µM)	≤0.5			

Reference: patent US10858360B2, “Tricyclic gyrase inhibitors” (priority 2011, dated 2020)
